81 molecules from the METLIN SMRT retention time set (Domingo-Almenara et al. 2019) can be followed below.

Molecules are shown by their SMILES.

A short description of the data set: gradient 5% acetonitrile 3 min, to 50% in 2 min, to 85% in 15 min, held 3 min, 100 µL/min. The conditions noted are these: column: Zorbax Extend-C18 2.1 x 50 mm; eluents: water / acetonitrile, 0.1% formic acid. In outline: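 Pure standards were run in mixtures of ~100 molecules by HPLC coupled to a quadrupole time-of-flight mass spectrometer. The column was a Zorbax Extend-C18 (2.1 × 50 mm, 1.8 μm) at 100 μL/min, with water and acetonitrile each containing 0.1% formic acid, in positive and negative ionization mode. Dead and dwell volumes were 40 μL and 900 μL. Retention time was taken from computationally picked adduct peaks, each manually inspected, with data collected over 3 months.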
In turn, `Cc1cccc(CNC(=O)C2CCN(S(=O)(=O)c3ccc4c(c3)NC(=O)CO4)CC2)c1` returned an RP-LC retention time of 794 s.

`CCN1C(=O)c2cc(C(=O)NCc3ccccc3C)nn2CC1(C)C(=O)NC1CCCC1` (stereo unspecified) gave an RP-LC retention time of 884 s.

Molecule `COc1ccc(C(F)(F)F)cc1NC(=O)C1CCCN(c2ccc(-n3ccnc3)nn2)C1` (stereo unspecified) had an RP-LC retention time of 609 s.

`Cc1noc(CNC(=O)c2cc(C)on2)n1`: the RP-LC retention time came to 592 s.

`CSc1ncccc1C(=O)Nc1cccc(OCc2nnc(-c3ccc(Cl)cc3)o2)c1`: the RP-LC retention time stood at 1010 s.

Consider `CCN(CC)C(=O)N1CCC2(CC1)C(OC)C(=O)N2c1cccc(F)c1` (stereo unspecified), for which the RP-LC retention time is 937 s.

On to `O=C(NCCNS(=O)(=O)CCOc1ccc(F)cc1)c1ccc(NC(=O)C2CC2)cc1`, for which the RP-LC retention time is 710 s.

`O=c1n(CC2CC2)nc2n1CCN(Cc1cccc(O)c1)C2` yielded an RP-LC retention time of 610 s.

`CCc1nnc(NC(=O)C2CCN(C(=O)c3ccccc3F)CC2)s1`: the RP-LC retention time stood at 675 s.

In turn, `O=C(c1ccc(-c2ccsc2)nc1)N1CCN(c2ccccc2)CC1` yielded an RP-LC retention time of 909 s.

Turning to `Cc1noc(-c2ccc(NC(=O)CSc3nnnn3C)cc2)n1`, the RP-LC retention time came out at 665 s.

`CCCCNC(=O)Cn1nc2c3cc(-c4ccc(C)c(C)c4)nn3ccn2c1=O` registered an RP-LC retention time of 924 s.

The molecule `COc1cc(O)ccc1-c1nc2cccc(C)n2c1Nc1ccccc1C` returned an RP-LC retention time of 667 s.

For the molecule `O=C(c1ccccc1Br)N1CCN(c2cc(-c3ccc(Cl)cc3)[nH]n2)CC1`, the RP-LC retention time came out at 913 s.

With `CCc1cccc(NC(=O)N2CCC(n3cnnc3C3CC3)C2)c1` (stereo unspecified), the RP-LC retention time is 667 s.

`CCOC(=O)C(CC)SC1=NS(=O)(=O)c2cc(F)ccc2N1` (stereo unspecified): the RP-LC retention time came out at 758 s.

With `O=C(CNC(=O)c1ccc(F)cc1)Nc1nc2ccccc2[nH]1`, the RP-LC retention time turned out to be 608 s.

Consider `O=C(CN1C(=O)CCC1=O)N1CC(c2nc(-c3cnccn3)no2)C1`, for which the RP-LC retention time was found to be 574 s.

In the case of `Cc1ccc(CNS(=O)(=O)c2c(C)nc3sc(C)nn23)o1`, the RP-LC retention time was 710 s.

The molecule `O=C(NC1CCCCCC1)c1ccc2c(c1)ncn2CCN1CCCC1` showed an RP-LC retention time of 597 s.

`Cc1ccc(C(=O)Nc2cccn3nc(C(C)C)nc23)cc1`: the RP-LC retention time worked out at 950 s.

`COc1cccc(-c2csc(-c3nnn(-c4ccccc4)c3N)n2)c1`: the RP-LC retention time came to 1040 s.

The molecule `CCn1c(CCc2ccccc2NS(=O)(=O)c2c(C)n[nH]c2C)nc2ccccc21` registered an RP-LC retention time of 630 s.

Molecule `O=S(=O)(Cc1ccccc1F)N1CC(c2nc(CCOCc3ccccc3)no2)C1` showed an RP-LC retention time of 1010 s.

`Cc1ccccc1Nc1c(-c2ccc(Cl)cc2)nc2cnccn12` had an RP-LC retention time of 1030 s.

As for `COc1ccc2oc(-c3noc(C(=O)NCCCN4CCCC4)n3)c(C)c2c1`, the RP-LC retention time worked out at 671 s.

For the molecule `O=C(NCc1ccc2c(c1)OCO2)c1nc(-c2ccnc(N3CCCCC3)c2)no1`, the RP-LC retention time worked out at 691 s.

Take `Cc1ccc(C)c(NC(=O)Cc2c(C(=O)O)c(C)cn2C)c1`: the RP-LC retention time came out at 795 s.

As to `CCn1c(=O)c2ccn(CC(=O)Nc3cc(C)cc(C)c3)c2n(CC)c1=O`, the RP-LC retention time amounted to 792 s.

On to `CCN1CCn2cc(S(=O)(=O)N3CCN(c4ccccc4)CC3)cc2C1=O`, for which the RP-LC retention time is 684 s.

For `CC(C)C(=O)N1CCN(c2ccc(=O)n(-c3ccc(C(C)C)cc3)n2)CC1`, the RP-LC retention time was determined as 834 s.

As to `COc1ccc(CC(=O)NCC(=O)Nc2nc3ccccc3[nH]2)cc1Cl`, the RP-LC retention time was 636 s.

On to `Cc1cccc(C)c1NC(=O)C1CCN(S(C)(=O)=O)c2cc(Cl)ccc2O1` (stereo unspecified), for which the RP-LC retention time turned out to be 919 s.

`COc1ccc(C2Cn3cnc(C(=O)N4CCC(C(=O)NCC(C)C)CC4)c3CO2)cc1` (stereo unspecified) gave an RP-LC retention time of 724 s.

Turning to `COCCc1noc(C2Cc3ccccc3N2C(=O)Nc2ccc3c(c2)OCCO3)n1` (stereo unspecified), the RP-LC retention time is 860 s.

`COc1ccccc1NC(=O)Nc1nc(CC(=O)NCc2ccco2)cs1` gave an RP-LC retention time of 712 s.

Molecule `Cc1cccc(-c2noc(CN3N=NC4C(=O)N(c5cccc(Cl)c5)C(=O)C43)n2)c1` (stereo unspecified) gave an RP-LC retention time of 1060 s.

In turn, `O=C1C(c2ccncc2)N(Cc2ccccc2)C(=O)CN1c1ccccc1` (stereo unspecified) showed an RP-LC retention time of 684 s.

In turn, `COc1cc(-c2noc(CN3C(=O)COc4cc(C)ccc43)n2)cc(OC)c1OC` returned an RP-LC retention time of 974 s.

In turn, `O=c1c2ccccc2nc2n1CCC2O` (stereo unspecified) came in with an RP-LC retention time of 567 s.

Consider `Cc1cc(N2CCN(C)CC2)nc2ccc(NC(=S)NCCC(C)C)cc12`, for which the RP-LC retention time came out at 572 s.

`Cc1ccc(Nc2c(-c3cccc(Br)c3)nc3ccc(Br)cn23)cc1` registered an RP-LC retention time of 1140 s.

The molecule `Fc1ccc(C2Cn3nnc(-c4nc(-c5ccccc5F)no4)c3CO2)cc1` (stereo unspecified) registered an RP-LC retention time of 1110 s.

For the molecule `Cc1cc(=O)n(CC(=O)Nc2cc(F)ccc2C)c(N2CCCC2)n1`, the RP-LC retention time worked out at 635 s.

The molecule `COc1ccc(Nc2ncccc2S(N)(=O)=O)cc1` came in with an RP-LC retention time of 712 s.

For `Cc1cccc(-c2noc(Cn3ccnc3)n2)c1`, the RP-LC retention time stood at 630 s.

For the molecule `CCN1CCN(c2cc(C)c3cc(NC(=O)C(c4ccccc4)C4CCCC4)ccc3n2)CC1` (stereo unspecified), the RP-LC retention time came to 646 s.

In turn, `CCn1c(=O)c2ccccc2n(Cc2nc(-c3ccc4c(c3)OCO4)no2)c1=O` showed an RP-LC retention time of 960 s.

In the case of `CCn1cnc(S(=O)(=O)N2CCC(C(=O)N3CCc4ccccc43)CC2)c1`, the RP-LC retention time turned out to be 754 s.

`CNC(=O)c1sc2nc(-c3ccc(OC)cc3)c(NCCOC)n2c1C` gave an RP-LC retention time of 656 s.

For the molecule `Cn1nccc1-c1cccc(-c2noc(-c3ccccn3)n2)c1`, the RP-LC retention time is 818 s.

`Cc1noc(/C=C\c2ccc(S(=O)(=O)N3CCN(c4ccccn4)CC3)cc2)c1NC(=O)C1CC1` registered an RP-LC retention time of 661 s.

In turn, `Cc1c(C(=O)NCC(C)C)cnn1-c1cc(-c2nc(C3CC3)no2)ccn1` registered an RP-LC retention time of 969 s.

Turning to `COc1cccc(Cn2nc3ccc(S(=O)(=O)N4CCCC4)cn3c2=O)c1`, the RP-LC retention time amounted to 814 s.

In turn, `Cc1nn(CC(=O)NC2CCCCCC2)c(=O)c2c(C)n(-c3ccccc3)nc12` gave an RP-LC retention time of 807 s.

For `Cc1noc(CNC(=O)COc2cccc3c2OC(C)(C)C3)n1`, the RP-LC retention time came to 724 s.

In turn, `CN1CCN(CC2(O)CCC3(CCN(C(=O)c4ccsc4)CC3)CC2)CC1` returned an RP-LC retention time of 570 s.

`O=C(Cn1nc2c3cc(-c4ccc(F)cc4)nn3ccn2c1=O)Nc1ccc(F)cc1Cl`: the RP-LC retention time came out at 959 s.

The molecule `COc1ccc(-c2nc(NC(C)C)c3ccccc3n2)cc1` showed an RP-LC retention time of 743 s.

Regarding `COc1ccc(-c2nc(C)cc(C)c2CNC(=O)C2CCC2)cc1`, the RP-LC retention time turned out to be 584 s.

For the molecule `O=C(Nc1ccc(C(F)(F)F)cc1)NC1CCN(c2cc(N3CCOCC3)cnn2)C1` (stereo unspecified), the RP-LC retention time turned out to be 685 s.

Consider `Cc1nnc(-c2ccc(S(=O)(=O)NCc3ccco3)o2)o1`, for which the RP-LC retention time amounted to 722 s.

In turn, `COc1ccc2c(C)c(CCC(=O)N[C@H](C(=O)O)c3ccccc3)c(=O)oc2c1` returned an RP-LC retention time of 744 s.

For `Cc1nnc(-c2ccc3ccn(CC(=O)Nc4ccc5c(c4)OCCO5)c3c2)o1`, the RP-LC retention time is 756 s.

Take `CCc1ccc(NS(=O)(=O)c2cc(-c3nc(C)cs3)cs2)cc1`: the RP-LC retention time stood at 1030 s.

Regarding `Cc1nc2ccn(Cc3ccco3)c(=O)c2cc1C(=O)N1CCC(C)CC1`, the RP-LC retention time turned out to be 746 s.

Take `CCN1C(=O)CCc2cc(NC(=O)c3ccnn3C)ccc21`: the RP-LC retention time stood at 677 s.

For `O=C(c1ccsc1)N1CCCn2cc(-c3ccccc3)nc21`, the RP-LC retention time stood at 640 s.

`CCc1ccc(S(=O)(=O)Nc2cc(-c3cn4ccc(C)cc4n3)ccc2C)cc1`: the RP-LC retention time worked out at 745 s.

Molecule `CC(C)c1noc(-c2ccc(-n3cnc(C(=O)N4CCSCC4)c3)nc2)n1` returned an RP-LC retention time of 863 s.

`CCOc1ccc(NC(=O)N2CCCC(C)(C(=O)NCc3cccc(OC)c3)C2)cc1` (stereo unspecified) yielded an RP-LC retention time of 872 s.

In turn, `CCc1noc(-c2cnc3nc(C)ccc3c2Nc2ccccc2C)n1` showed an RP-LC retention time of 818 s.

As to `CCCCCCNC(=O)C1CCCN(c2ncc(-c3ccccc3)cn2)C1` (stereo unspecified), the RP-LC retention time came out at 1150 s.

As to `Cc1cc(C2CCCN2C(=O)Nc2ccccc2C)no1` (stereo unspecified), the RP-LC retention time was found to be 757 s.

In turn, `Cc1cccc2c(=O)n(C)c(CCC(=O)NCc3cc(F)ccc3F)nc12` displayed an RP-LC retention time of 814 s.

On to `Cc1nc(C)c2c(n1)N(CC1CCCCC1)C(=O)CC2`, for which the RP-LC retention time came to 730 s.

In turn, `O=C(CCc1nc2ccccc2n(CC(=O)Nc2cc(F)cc(F)c2)c1=O)NCc1ccccc1` displayed an RP-LC retention time of 890 s.

`O=C(Cc1csc2nc(-c3ccccc3)cn12)NCCC1=CCCCC1` showed an RP-LC retention time of 864 s.

In turn, `CS(=O)(=O)N1CCCN(C(=O)c2ccccc2F)CC1` came in with an RP-LC retention time of 651 s.

`CCN1C(=O)c2cccnc2Sc2cc(C(=O)NCc3ccccc3F)ccc21` had an RP-LC retention time of 803 s.

The molecule `Cc1nn(CC(=O)N2CCN(c3ccc(Cl)cc3)CC2)c(=O)c2noc(C)c12` showed an RP-LC retention time of 821 s.
